Here are results for twelve compounds from patent EP2794556B1, “BIS-(ARYL/HETEROARYL)-METHYLENE COMPOUNDS, PHARMACEUTICAL COMPOSITIONS CONTAINING SAME AND THEIR USE FOR TREATING CANCER” (Gleason, James L., priority 2011, dated 2013).

Assay [1] deals with SCC4 cells. Briefly: MTS cell proliferation assay. The format is cell-based, human. To be noted: vitamin D resistant SCC4 cells, Figures 7c, 8 and 9. The text has this:
Dose-dependent effects of compounds on cell cycle progression was monitored using a CellTiter 96 Aqueous Non-Radioactive Cell Proliferation Assay Kit (Promega). The assay composed of solutions of a novel tetrazolium compound (MTS) and an electron coupling reagent (phenazine methosulfate; PMS). MTS is reduced by metabolically active cells into a soluble formazan product that absorbs at 490nm. The quantity of formazan product absorbing at 490nm is directly proportional to the number of living cells.
A general note: Formazan colour is commonly taken as a measure of viable cells.

For the next assay, the target named is HDAC3 (Homo sapiens, UniProt O15379). Briefly: Fluorogenic HDAC inhibition assay, purified enzyme.
The target in the next assay is T1, HDAC6 (Homo sapiens, UniProt Q9UBN7).
T1 sequence (Q9UBN7 1-1215): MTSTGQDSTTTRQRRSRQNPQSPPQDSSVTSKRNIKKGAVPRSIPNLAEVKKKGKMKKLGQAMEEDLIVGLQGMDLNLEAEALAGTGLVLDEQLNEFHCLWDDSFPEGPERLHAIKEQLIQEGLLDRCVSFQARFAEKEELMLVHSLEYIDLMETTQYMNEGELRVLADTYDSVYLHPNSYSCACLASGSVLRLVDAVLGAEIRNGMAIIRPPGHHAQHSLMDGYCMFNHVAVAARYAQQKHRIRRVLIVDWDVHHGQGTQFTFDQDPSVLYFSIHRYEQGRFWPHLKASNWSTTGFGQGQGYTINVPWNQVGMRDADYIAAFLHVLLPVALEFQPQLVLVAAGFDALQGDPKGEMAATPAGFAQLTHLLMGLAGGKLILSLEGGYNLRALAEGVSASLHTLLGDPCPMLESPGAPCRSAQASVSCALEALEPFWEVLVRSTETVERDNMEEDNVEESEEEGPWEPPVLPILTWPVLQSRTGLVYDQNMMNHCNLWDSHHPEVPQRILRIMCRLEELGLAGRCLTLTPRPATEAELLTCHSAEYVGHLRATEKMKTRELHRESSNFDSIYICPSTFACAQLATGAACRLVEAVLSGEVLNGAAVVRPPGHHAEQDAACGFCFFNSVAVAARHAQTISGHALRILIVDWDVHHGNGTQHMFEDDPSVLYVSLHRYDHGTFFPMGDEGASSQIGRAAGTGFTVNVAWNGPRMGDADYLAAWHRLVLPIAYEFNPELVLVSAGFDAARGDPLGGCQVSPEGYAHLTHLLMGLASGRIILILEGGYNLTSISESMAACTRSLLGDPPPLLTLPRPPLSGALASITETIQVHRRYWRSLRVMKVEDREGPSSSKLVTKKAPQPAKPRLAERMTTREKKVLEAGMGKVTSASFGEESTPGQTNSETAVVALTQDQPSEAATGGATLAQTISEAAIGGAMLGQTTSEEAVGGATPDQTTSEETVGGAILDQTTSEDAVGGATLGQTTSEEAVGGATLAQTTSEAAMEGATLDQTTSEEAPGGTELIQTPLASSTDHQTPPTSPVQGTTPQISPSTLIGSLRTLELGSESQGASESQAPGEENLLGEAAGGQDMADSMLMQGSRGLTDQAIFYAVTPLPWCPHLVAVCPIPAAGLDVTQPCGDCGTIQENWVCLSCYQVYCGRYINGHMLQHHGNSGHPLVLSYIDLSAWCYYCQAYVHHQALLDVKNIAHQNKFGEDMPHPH
Briefly: Fluorogenic HDAC inhibition assay, purified enzyme.

In the next assay the target is T2, VDR (Homo sapiens, UniProt P11473).
T2 construct: endogenous in cells; host or cells: SCC25 human head and neck squamous carcinoma cells
T2 sequence (P11473 1-427): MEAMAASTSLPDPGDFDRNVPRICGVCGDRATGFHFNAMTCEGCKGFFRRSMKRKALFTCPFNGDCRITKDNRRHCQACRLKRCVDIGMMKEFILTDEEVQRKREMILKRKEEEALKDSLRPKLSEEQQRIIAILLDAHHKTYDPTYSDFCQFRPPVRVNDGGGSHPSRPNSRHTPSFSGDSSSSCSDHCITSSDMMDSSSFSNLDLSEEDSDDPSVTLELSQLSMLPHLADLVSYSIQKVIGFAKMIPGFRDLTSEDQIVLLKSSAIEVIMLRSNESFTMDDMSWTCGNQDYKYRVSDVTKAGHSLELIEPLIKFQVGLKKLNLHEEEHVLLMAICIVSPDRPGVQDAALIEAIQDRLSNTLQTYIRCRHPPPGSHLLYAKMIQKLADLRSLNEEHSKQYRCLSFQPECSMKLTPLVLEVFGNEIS
Briefly: VDR agonism by induction of CYP24 gene expression (RT/PCR). It is filed as cell-based. The following applies: for VDR agonism by induction of CYP24 gene expression: screen at 10 µM, Fig. 1a; for VDR agonist activity and potency, induction of CYP24 gene expression: 1d. How it is done:
Cell culture. Human head and neck squamous carcinoma cell lines SCC4 and SCC45 and mouse HNSCC line AT84 were purchased from American Type Culture Collection (Manassas, VA) and cultured under recommended conditions. Cells were split at 60-70% confluence, as follows: cells were washed with filtered PBS, split with a 5-10 min incubation with 1 ml Trypsin-EDTA (Invitrogen, Carlsbad, CA) in PBS, collected with medium. Following centrifugation, the supernatant was removed. Cell pellets were resuspended with DMEM-F12, and distributed on fresh media-containing dishes. For treatments, AT84 cells were split and 24h later medium was changed to DMEM + 10% charcoal-stripped FBS.
RNA isolation and RT/PCR analysis. […]. Proc. Nat. Acad. Sci. U.S.A. 105, 8250-55. and Lamblin, M.et al Bioorganic & Medicinal Chemistry (2010) 18:4119-4137. After treatment, cells were washed with PBS, homogenized with 1ml TRIzol Reagent (Invitrogen, Carlsbad, CA), kept at room temperature for 2-5 min, collected and kept at -80 °C for at least 1h. After, thawing 0.2 ml chloroform was added. After vigorous mixing and storing for 10min, mixtures were centrifuged (10,000rpm, 15 min, 4 °C) and the upper transparent layer was transferred to a new tube. 0.5 ml isopropanol was added and the new solution was mixed. After centrifuging at 4 °C, the supernatant was discarded and 1ml of 75% ethanol was added. After centrifuging and discarding the supernatant, the pellet was air-dried for 5-10 min, and then dissolved in ddH2O. RNA concentrations were measured using a spectrophotometer, and 1-3µg of RNA were loaded for reverse transcriptase reactions (total volume: 20 µl). 80µl of ddH2O was added to the RT-product, and 1.5µl of that was used as template for the PCR reaction. Reverse transcriptase (Super Script II) was purchased from Invitrogen (Carlsbad, CA). DNA polymerase and dNTP's were ordered from Fermentas (Glen Burnie, MD).
Test compounds (10 µM) were first screened for VDR agonism by analysis of induction of CYP24 gene expression in 1,25D-sensitive human SCC25 cells. […]. Consistent with binding to the VDR, induction of CYP24 by compound JF-B01, compound JF-B53 or compound 16 (JF-B54) was blocked (Fig. 1c). […]

The next assay concerns AT84 cells. Briefly: EdU cell growth assay. The following applies: 1,25D-sensitive AT84 cells, Fig. 2d.
The subject of assay [2] is SCC4 cells. Briefly: EdU cell growth assay. To be noted: 1,25D-resistant SCC4 cells, Fig. 2e, f.
Experimental: (§1) EdU cell growth assay. Click-iT EdU Alexa Fluor high-throughput imaging (HCS) assay for cell proliferation. HCS assays were performed on AT84 mouse squamous carcinoma cell line (ATCC) following the manufacturer's instruction (Molecular Probes, Invitrogen). […] All samples were in triplicate.

Read-outs that look alike come from different tables or passages of the source.

The IC50 is the concentration that inhibits the measured activity by half.

Sequence of HDAC3 (O15379 whole entry, species assumed): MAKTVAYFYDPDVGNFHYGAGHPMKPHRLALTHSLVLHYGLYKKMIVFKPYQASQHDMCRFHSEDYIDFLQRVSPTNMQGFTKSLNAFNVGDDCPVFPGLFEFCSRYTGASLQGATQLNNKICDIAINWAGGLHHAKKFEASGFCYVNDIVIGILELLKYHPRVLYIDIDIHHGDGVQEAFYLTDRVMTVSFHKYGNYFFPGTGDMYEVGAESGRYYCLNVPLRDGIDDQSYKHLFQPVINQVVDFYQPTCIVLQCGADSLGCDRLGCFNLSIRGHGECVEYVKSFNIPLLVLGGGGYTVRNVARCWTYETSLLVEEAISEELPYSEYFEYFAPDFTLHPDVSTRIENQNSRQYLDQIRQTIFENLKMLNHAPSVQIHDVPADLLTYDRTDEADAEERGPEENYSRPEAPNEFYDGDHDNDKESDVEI
Sequence of HDAC3 (Q9Y618 395-489 partner limits assumed, species assumed): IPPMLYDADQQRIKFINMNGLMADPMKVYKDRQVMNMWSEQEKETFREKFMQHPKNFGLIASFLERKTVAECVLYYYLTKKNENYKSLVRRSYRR
Experimental for AT84 cells: as §1
Experimental for HDAC3: (§2) Fluorogenic HDAC inhibition assay. Boc-Lys(Ac)-7-amino-4-methylcoumarin (Boc-Lys(Ac)-AMC) was used as substrate for the HDAC assays. […] Trypsin was used to stop the reaction, releasing free AMC. The trypsin solution was prepared as follow: trypsin was dissolved in HDAC buffer to give a concentration of 10 mg/mL. Release of AMC was monitored by measuring the fluorescence at 460 nm (lex = 390 nm) with a microplate reader (SpectraMax Gemini) at 37 °C. The AMC signals were recorded against a blank with buffer, substrate and trypsin but without the enzyme. All experiments were carried out at least in triplicate.
(§3) For standard HDAC assays, 50 µL of HDAC buffer was mixed with 10 µL of diluted enzyme solution in HDAC buffer at room temperature. The HDAC reaction was started by adding 40 µL of substrate solution in HDAC buffer followed by 30 min of incubation with stirring at 37 °C. The reaction was stopped by adding 100 µL of trypsin solution. After a 10 min incubation with stirring at 37 °C, the release of AMC was monitored by measuring the fluorescence. For HDAC inhibition assays, inhibitor diluted in 50 µL of HDAC buffer was mixed with 10 µL of diluted enzyme solution in HDAC buffer at room temperature. The HDAC reaction was started by adding 40 µL of substrate solution in HDAC buffer followed by 30 min of incubation with stirring at 37 °C. The reaction was stopped by adding 100 µL of trypsin solution. After a 10 min incubation with stirring at 37 °C, the release of AMC was monitored by measuring the fluorescence.
Experimental for HDAC6: as §2, §3

In the case of `CCC(CC)(c1ccc(OCC(O)C(C)(C)C)c(C)c1)c1cc(C)c(CCC(=O)NO)s1` (stereo not drawn) [DK-178, N-hydroxy-3-(5-(3-(4-(2-hydroxy-3,3-dimethylbutoxy)-3-methylphenyl)pentan-3-yl)-3-methylthiophen-2-yl)propanamide], the antiproliferative potency result with SCC4 cells [1] was “low micromolar potency”. Further, the half-maximal inhibitory concentration (IC50) was determined as 47.3 µM on HDAC3 and 24.9 µM against HDAC6.

Take `CCC(CC)(c1ccc(OCC(=O)NO)c(C)c1)c1cc(C)c(CCC(O)C(C)(C)C)s1` (stereo not drawn) [DK-201, N-hydroxy-2-(4-(3-(5-(3-hydroxy-4,4-dimethylpentyl)-4-methylthiophen-2-yl)pentan-3-yl)-2-methylphenoxy)acetamide]: 30.5 µM corresponded to half-maximal inhibition on HDAC3 (IC50).

For `CCC(CC)(c1ccc(OCC(O)C(C)(C)C)c(C)c1)c1cn(C)c2cc(CCC(=O)NO)ccc12` (stereo not drawn) [DK-234, N-hydroxy-3-(3-(3-(4-(2-hydroxy-3.3-dimethylbutoxy)-3-methylphenyl)pentan-3-yl)-1-methyl-1H-indol-6-yl)propanamide], the antiproliferative potency result in the assay with SCC4 cells [1] is recorded as “low micromolar potency”.

On to `CCC(CC)(c1ccc(OCCCCCC(=O)NO)cc1)c1ccc(OCC(O)C(C)(C)C)c(C)c1` (stereo not drawn) [DK-367, N-hydroxy-6-(4-(3-(4-(2-hydroxy-3,3-dimethylbutoxy)-3-methylphenyl)pentan-3-yl)phenoxy)hexanamide], for which the antiproliferative potency result in the assay on SCC4 cells [1] is recorded as “low micromolar potency”. At HDAC6, this compound yielded a half-inhibitory concentration (IC50) of 1.57 µM.

For the compound `CCC(CC)(c1ccc(OCC(=O)NO)c(C)c1)c1ccc(OCC(=O)NO)c(C)c1` [JF-B06], on VDR (SCC25 cells), the “VDR agonism by induction of CYP24 gene expression” value (from here on “VDR agonism by induction”) was “completely inactive”. The IC50 on HDAC6 stood at 4.7 µM; at HDAC6 (read-out: HDAC6 IC50, purified enzyme in vitro) it was 4.7 µM. Further, in the assay on AT84 cells, the “inhibition of proliferation, EdU incorporation” value (shortened to “inhibition of proliferation”) is recorded as “failed to block AT84 proliferation”.

In the case of `CCC(CC)(c1ccc(OCC(=O)NO)c(C)c1)c1ccc(OCC(O)CO)c(C)c1` (stereo not drawn) [JF-B40], the “VDR agonism by induction” value at VDR (SCC25 cells) is “completely inactive”.

Take `CCC(CC)(c1ccc(OCCO)c(C)c1)c1ccc(OCC(=O)NO)c(C)c1` [JF-B52, N-Hydroxy-2-(4-(3-(4-(2-hydroxvethoxy)-3-methylphenyl)pentan-3-yl)-2-methylphenoxy)acetamide]: the “VDR agonism by induction” value on VDR (SCC25 cells) was “completely inactive”.

Turning to `CCC(CC)(c1ccc(OCC(=O)NO)c(C)c1)c1ccc(OCC(C)(C)O)c(C)c1` [JF-B53, N-Hydroxy-2-(4-(3-(4-(2-hydroxy-2-methylpropoxy)-3-methylphenyl)pentan-3-yl)-2-methylphenoxy)acetamide], on VDR (Fig. 1c, blocking agent not given), the “induction of CYP24 by the compound was blocked” value is listed as “blocked”. On VDR (SCC25 cells, Fig. 1b), the “VDR agonist activity and potency, induction of CYP24 gene expression” value is “VDR agonist activity, but with reduced potency”. Besides, the “inhibition of proliferation” value in the assay with SCC4 cells [2] is listed as “partially blocked EdU incorporation”. In addition, the results for the IC50 at HDAC3 and against HDAC6 were 17 µM and 33.3 µM, respectively.

As for `CCC(CC)(c1ccc(OCC(=O)NO)c(C)c1)c1ccc(OCC(=O)C(C)(C)C)c(C)c1` [JF-B59, 2-(4-(3-(4-(3,3-dimethyl-2-oxobutoxy)-3-methylphenyl)pentan-3-yl)-2-methylphenoxy)-N-hydroxyacetamide], the “VDR agonist potency, fold lower compared to JF-B01” value on VDR (SCC25 cells, Fig. 1b) is more than 10 fold.

For `CCC(CC)(c1ccc(OCC(=O)O)c(C)c1)c1ccc(OCC(=O)C(C)(C)C)c(C)c1` [JF-C11], the “VDR agonist activity and potency, induction of CYP24 gene expression” value on VDR (SCC25 cells, Fig. 1b) is on record as “some agonist activity”. The “inhibition of proliferation” value in the assay with SCC4 cells [2] is “failed to block SCC4 proliferation”.

In the case of `CCC(CC)(c1ccc(OCCCC(=O)NO)c(C)c1)c1ccc(OC[C@H](O)C(C)(C)C)c(C)c1` [JFD-15], the antiproliferative potency result in the assay on SCC4 cells [1] is listed as “low micromolar potency”. Besides, the half-maximal inhibitory concentration (IC50) against HDAC3 was determined as 9.83 µM; against HDAC6, 47.1 µM.

As to `CCC(CC)(c1ccc(CCC(=O)NO)c(C)c1)c1ccc(OC[C@H](O)C(C)(C)C)c(C)c1` [JFD-50], in the assay on SCC4 cells [1], the antiproliferative potency entry is “low micromolar potency”. The 50% inhibitory concentration (IC50) was 45.1 µM against HDAC3 and 36.1 µM on HDAC6.
